In US20230097883A1, “ERGOTHIONEINE PET COMPOUNDS AND METHODS OF USE THEREOF” (VANDERBILT UNIVERSITY, priority 2021, published 2023):
“Also recorded” adds a separate entry of the source.

Tests used:
HeLa cells = test: DCFH-DA ROS scavenging assay in HeLa cells; format: cell-based
From the text: We used a commercially available DCFH-DA (2′,7′-dichlorodihydrofluorescein diacetate) probe to assess the ROS scavenging power of ERGO in HeLa and neuroblastoma SH-SY5Y cells. Upon penetrating the cytoplasm, DCFH-DA is deacetylated by endogenous esterases to a non-fluorescent intermediate, followed by oxidation by free radicals. This generates a continuous and extended conjugation system, resulting in the production of highly fluorescent DCF (2′ 7′-dichlorofluorescein). In an aqueous condition, DCF has a maximal excitation and emission of 495 nm and 529 nm, respectively. Well-adhered HeLa or SH-SY5Y cells previously incubated with DCFH-DA were exposed to a commercial ROS initializer and ERGO concentrations ranging from 0-100 mM. […] Each point in the assay was measured in pentaplicate, p<0.0001.
On day 1, HeLa cells or SH-SY5Y cells were seeded into a 96-well plate with a density of 10,000 cells/mL. […] Immediately afterwards, fluorescence measurement began using a microplate reader (Biotek Industries, Agilent Technologies, Winooski, Vt., USA) with an excitation and emission wavelength of 485 nm and 528 nm, respectively. Each ERGO concentration was measured in pentaplicate.

[1] = Nickel assay: 2D-HPLC with nickel HisTrap column and His-tag antibodies; format: binding
Method: In principle, nickel is a transition metal like Fe, Cu and Zn. The nickel column can immobilize hexahistidine-tag (His-tag) recombinant proteins, such as recombinant antibodies harboring a His tag (His-Abs). In our experimental design, nickel forms a substantial coordination equilibrium with histidines via the imidazole ring structures to form a stable metal/ligand complex. This assay uses two different buffer reservoirs, a wash buffer (PBS) and an elution buffer (PBS containing 50 mM imidazole). To remove the His-Abs (14 KDa) from the nickel column, the washing buffer was switched to the elution buffer and the His-Abs dislodged from the column were detected by the 2D-HPLC (FIG. 3.1C, left). In a different phase of the experiment, the His-Abs solution was spiked with ERGO (14.5 mM) prior to injection into the HPLC system. […] The integrity of the eluted His-Abs was collected and confirmed by orbit trap mass spectrometry.
ERGO's metal-binding affinity was tested via a 2D-HPLC equipped with a nickel-based HisTrap HP column (Cytiva, Marlborough, Mass., USA). The 2D-HPLC was performed with a Hitachi LaChrom Elite L-2455 Diode Array Detector linked to a Hitachi L-2130 pump (Hitachi High-Technologies, Corp., Tokyo, Japan). […]

oxidative stress = test: [11C]ERGO PET imaging of oxidative stress after ERGO treatment; format: in vivo, mouse; settings: ERGO-treated versus non-treated 5XFAD mice, 20-min dynamic scan after IV injection
Method: To address our primary question whether longitudinal consumption of ERGO as a potent antioxidant benefit the brain, three cohorts of animals (n=12 non-treated WT control, n=12 non-treated 5XFAD, and n=18 ERGO-treated 5XFAD) were used (FIG. 3.2A). Starting at the age of 8 weeks, the animals were treated with high doses of ERGO solution (25-50 mg/Kg) formulated in double distilled (dd) water via oral gavage three times a week over the course of eight weeks. To reduce bias in the behavioral experiments with regard to the potential stress during gavage treatment, non-treated animals underwent the identical gavage process with the vehicle, water, only. The efficacy of the therapy was evaluated by behavioral testing, followed by three different non-invasive PET imaging sessions to assess biomarkers related to AD pathology. In addition to assessing Abeta levels and glucose metabolism using the [^11C]PIB and [^18F]FDG probes, respectively; we also tested for the first time whether oxidative stress could be used as an indicator of response to therapy using the [^11C]ERGO PET radioligand. Finally, animals were euthanized, and the brains were collected for immunohistochemical analysis.
Thus, in this study, [^11C]ERGO PET radioligand was used to assess the fluctuation in oxidative stress with respect to ERGO therapy. […]

For `C[N+](C)(C)[C@@H](Cc1c[nH]c(=S)[nH]1)C(=O)[O-]` [ERGO, L-ergothioneine], which “DCF fluorescence signal (ROS)” value (HeLa cells; ERGO 100 mM) is on record?
The value was “nearly negligible; also recorded: quenches the fluorescence totally”.

What about the “DCF fluorescence signal (ROS)” value (HeLa cells; ERGO starting from 5 mM) of the same molecule?
Its value is “attenuates the fluorescence significantly”.

What about the “elution of His-tag antibodies from the nickel column in the presence of ERGO” value ([1]; His-Abs solution spiked with ERGO 14.5 mM, PBS wash buffer) of the same molecule?
The value was “eluted from the nickel column immediately by the wash buffer; also recorded: washed out immediately”.

And the “elution of His-tag camelid antibodies from the nickel column in the presence of ERGO” value ([1]; antibody injected with addition of ERGO 50 nM, PBS mobile phase)?
The value was “Right at the beginning of the run, His-tag camelid antibodies were eluted”.

And the “[11C]ERGO PET signal pertaining to oxidative stress in the brain” value (oxidative stress)?
Its value is “very modest reduction in PET signal”.
